# Earlier results, collected in patent publication US8349888B2, “Phytoestrogenic isoflavone compositions, their preparation and use thereof for protection against and treatment of radiation injury” (priority 2000, dated 2013).
# Experiments:
# [1] = radioprotective doses
# [2] = test system: mice
Compound,behavioral toxicity [1],efficacy if given after radiation [2]
C[C@]12CC[C@@H]3c4ccc(O)cc4CC[C@H]3[C@@H]1CC[C@@H]2O [17-beta-estradiol],behaviorally toxic,
O=c1cc(-c2ccc(O)c(O)c2)oc2c([C@@H]3O[C@H](CO)[C@@H](O)[C@H](O)[C@H]3O)c(O)cc(O)c12 [orientin],,not effective at all
O=c1cc(-c2ccc(O)cc2)oc2c([C@@H]3O[C@H](CO)[C@@H](O)[C@H](O)[C@H]3O)c(O)c([C@@H]3O[C@H](CO)[C@@H](O)[C@H](O)[C@H]3O)c(O)c12 [vicenin],,not effective at all
